The structures appear in SMILES notation. Bounds are passed on as bounds.

As a reminder, the Ki is a measure of affinity in units of concentration, obtained from inhibition or displacement. Lower therefore signals tighter binding.

Sequence of human capsaicin receptor (VR1) (Q8NER1 whole entry): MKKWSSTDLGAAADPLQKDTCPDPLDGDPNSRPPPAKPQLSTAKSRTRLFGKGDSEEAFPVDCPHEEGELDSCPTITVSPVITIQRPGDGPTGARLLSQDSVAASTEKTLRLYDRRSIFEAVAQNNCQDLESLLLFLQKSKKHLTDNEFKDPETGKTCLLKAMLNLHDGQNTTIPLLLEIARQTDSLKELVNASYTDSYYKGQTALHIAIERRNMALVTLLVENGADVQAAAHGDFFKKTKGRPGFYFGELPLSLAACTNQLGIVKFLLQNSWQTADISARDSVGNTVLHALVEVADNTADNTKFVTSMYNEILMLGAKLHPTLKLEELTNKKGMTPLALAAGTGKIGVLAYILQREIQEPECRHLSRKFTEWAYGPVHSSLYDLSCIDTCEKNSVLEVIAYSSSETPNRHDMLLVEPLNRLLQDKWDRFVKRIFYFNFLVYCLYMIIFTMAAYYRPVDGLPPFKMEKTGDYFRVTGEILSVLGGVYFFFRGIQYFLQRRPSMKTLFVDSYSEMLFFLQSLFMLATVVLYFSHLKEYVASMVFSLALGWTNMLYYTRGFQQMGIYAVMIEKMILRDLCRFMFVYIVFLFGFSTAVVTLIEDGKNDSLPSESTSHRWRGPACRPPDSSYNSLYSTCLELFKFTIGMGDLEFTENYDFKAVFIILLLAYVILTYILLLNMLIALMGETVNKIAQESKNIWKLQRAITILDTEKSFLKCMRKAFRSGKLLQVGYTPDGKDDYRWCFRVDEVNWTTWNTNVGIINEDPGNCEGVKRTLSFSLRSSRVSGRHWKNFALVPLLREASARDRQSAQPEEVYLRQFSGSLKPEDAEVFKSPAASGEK

The test addresses human capsaicin receptor (VR1) (Homo sapiens, UniProt Q8NER1). The test is described as follows: Capsaicin receptor binding assay ([3H]RTX competition, VR1-transfected HEK293 membranes).
With `Cc1cccnc1-c1ccc2c(Nc3ccc(C(F)(F)F)cc3)nc(CN3C[C@@H](C)O[C@@H](C)C3)nc2c1` [Compound 618, [2-(2,6-Dimethyl-morpholin-4-ylmethyl)-7-(3-methyl-pyridin-2-yl)-quinazolin-4-yl]-(4-trifluoromethyl-phenyl)-amine (cis)], the Ki is less than 1 µM.
`C[C@@H]1CN(Cc2nc(Nc3ccc(C(F)(F)F)cc3)c3ccc(-c4ccccn4)cc3n2)C[C@H](C)O1` [Compound 619, [2-(2,6-Dimethyl-morpholin-4-ylmethyl)-7-pyridin-2-yl-quinazolin-4-yl]-(4-trifluoromethyl-phenyl)-amine (cis)] yielded a Ki of less than 1 µM.
Compound `C[C@@H]1CN(Cc2nc(Nc3ccc(C(F)(F)F)cc3)c3ccc(-c4ccccc4C(F)(F)F)cc3n2)C[C@H](C)O1` [Compound 620, [2-(2,6-Dimethyl-morpholin-4-ylmethyl)-7-(2-trifluoromethyl-phenyl)-quinazolin-4-yl]-(4-trifluoromethyl-phenyl)-amine (cis)] showed a Ki of less than 1 µM.
Next, `C[C@@H]1CN(Cc2nc(Nc3ccc(C(C)(C)C)cc3)c3ccc(-c4ncccc4Cl)cc3n2)C[C@@H](C)O1` [Compound 621, (R,R)-(4-tert-Butyl-phenyl)-[7-(3-chloro-pyridin-2-yl)-2-(2,6-dimethyl-morpholin-4-ylmethyl)-quinazolin-4-yl]-amine]: less than 1 µM; `C[C@@H]1CN(Cc2nc(Nc3ccc(F)cc3)c3ccc(-c4ncccc4Cl)cc3n2)C[C@@H](C)O1` [Compound 622, (R,R)-(4-Fluoro-phenyl)-[7-(3-chloro-pyridin-2-yl)-2-(2,6-dimethyl-morpholin-4-ylmethyl)-quinazolin-4-yl]-amine]: less than 1 µM; `CC(=O)c1ccc(Nc2nc(CN3C[C@@H](C)O[C@H](C)C3)nc3cc(-c4ncccc4Cl)ccc23)cc1` [Compound 623, (R,R)-1-{4-[7-(3-Chloro-pyridin-2-yl)-2-(2,6-dimethyl-morpholin-4-ylmethyl)-quinazolin-4-ylamino]-phenyl}-ethanone]: less than 1 µM.
`C[C@@H]1CN(Cc2nc(Nc3ccc(Cl)cc3)c3ccc(-c4ncccc4Cl)cc3n2)C[C@@H](C)O1` [Compound 624, (R,R)-(4-Chloro-phenyl)-[7-(3-chloro-pyridin-2-yl)-2-(2,6-dimethyl-morpholin-4-ylmethyl)-quinazolin-4-yl]-amine] had a Ki of less than 1 µM.
The value for `CC(C)c1ccc(Nc2nc(CN3C[C@@H](C)O[C@H](C)C3)nc3cc(-c4ncccc4Cl)ccc23)cc1` [Compound 625, (R,R)-(4-Isopropyl-phenyl)-[7-(3-chloro-pyridin-2-yl)-2-(2,6-dimethyl-morpholin-4-ylmethyl)-quinazolin-4-yl]-amine] was less than 1 µM; that for `CCc1ccc(Nc2nc(CN3C[C@@H](C)O[C@H](C)C3)nc3cc(-c4ncccc4Cl)ccc23)cc1` [Compound 626, (R,R)-(4-Ethyl-phenyl)-[7-(3-chloro-pyridin-2-yl)-2-(2,6-dimethyl-morpholin-4-ylmethyl)-quinazolin-4-yl]-amine] was less than 1 µM.
Next, `CCN1CCN(Cc2nc(Nc3ccc(C(F)(F)F)cc3)c3ccc(-c4ncccc4C(F)(F)F)cc3n2)CC1` [Compound 628, [2-(4-Ethyl-piperazin-1-ylmethyl)-7-(3-trifluoromethyl-pyridin-2-yl)-quinazolin-4-yl]-(4-trifluoromethyl-phenyl)-amine]: less than 1 µM; `CC(C)Oc1ccc(Nc2nc(CN3C[C@@H](C)O[C@H](C)C3)nc3cc(-c4ncccc4Cl)ccc23)cn1` [Compound 629, (R,R)-[7-(3-Chloro-pyridin-2-yl)-2-(2,6-dimethyl-morpholin-4-ylmethyl)-quinazolin-4-yl]-(6-isopropoxy-pyridin-3-yl)-amine]: less than 1 µM.
Next, `C[C@@H]1CN(Cc2nc(Nc3ccc(C#N)cc3)c3ccc(-c4ncccc4Cl)cc3n2)C[C@@H](C)O1` [Compound 630, (R,R)-4-[7-(3-Chloro-pyridin-2-yl)-2-(2,6-dimethyl-morpholin-4-ylmethyl)-quinazolin-4-ylamino]-benzonitrile]: less than 1 µM.
In turn, `CC(C)S(=O)(=O)c1ccc(Nc2nc(CN3C[C@@H](C)O[C@H](C)C3)nc3cc(-c4ncccc4Cl)ccc23)cc1` [Compound 631, (R,R)-[7-(3-Chloro-pyridin-2-yl)-2-(2,6-dimethyl-morpholin-4-ylmethyl)-quinazolin-4-yl]-[4-(propane-2-sulfonyl)-phenyl]-amine] yielded a Ki of less than 1 µM.
As for `C[C@@H]1CN(Cc2nc(Nc3ccc(C(C)(C)C)nc3)c3ncc(-c4ncccc4Cl)cc3n2)C[C@H](C)O1` [Compound 632, (6-tert-Butyl-pyridin-3-yl)-[7-(3-chloro-pyridin-2-yl)-2-(2,6-dimethyl-morpholin-4-ylmethyl)-pyrido[3,2-d]pyrimidin-4-yl]-amine (cis)], the Ki is less than 1 µM.
Next, `C[C@@H]1CN(Cc2nc(Nc3ccc(C(C)(C)C)cc3)c3ncc(-c4ncccc4Cl)cc3n2)C[C@H](C)O1` [Compound 633, (4-tert-Butyl-phenyl)-[7-(3-chloro-pyridin-2-yl)-2-(2,6-dimethyl-morpholin-4-ylmethyl)-pyrido[3,2-d]pyrimidin-4-yl]-amine (cis)]: less than 1 µM; `CC1CN(Cc2nc(Nc3ccc(C(F)(F)F)cc3)c3ccc(-c4ncccc4Cl)cc3n2)CC(C)N1` (centres unmarked) [Compound 634, [7-(3-Chloro-pyridin-2-yl)-2-(3,5-dimethyl-piperazin-1-ylmethyl)-quinazolin-4-yl]-(4-trifluoromethyl-phenyl)-amine]: less than 1 µM; `Cc1cccnc1-c1ccc2c(Nc3ccc(C(C)(C)C)cc3)nc(CN3C[C@@H](C)O[C@@H](C)C3)nc2c1` [Compound 635, (4-tert-Butyl-phenyl)-[2-(2,6-dimethyl-morpholin-4-ylmethyl)-7-(3-methyl-pyridin-2-yl)-quinazolin-4-yl]-amine (cis)]: less than 1 µM.
Next, `C[C@@H]1CN(Cc2nc(Nc3ccc(C(C)(C)C)cc3)c3ccc(-c4ccccn4)cc3n2)C[C@H](C)O1` [Compound 636, (4-tert-Butyl-phenyl)-[2-(2,6-dimethyl-morpholin-4-ylmethyl)-7-pyridin-2-yl-quinazolin-4-yl]-amine (cis)]: less than 1 µM.
Turning to `Cc1cccc(-c2ccc3c(Nc4ccc(C(C)(C)C)cc4)nc(CN4C[C@@H](C)O[C@@H](C)C4)nc3c2)n1` [Compound 637, (4-tert-Butyl-phenyl)-[2-(2,6-dimethyl-morpholin-4-ylmethyl)-7-(6-methyl-pyridin-2-yl)-quinazolin-4-yl]amine (cis)], the Ki is less than 1 µM.
In the case of `COc1ccccc1-c1ccc2c(Nc3ccc(C(F)(F)F)cc3)nc(CN3C[C@@H](C)O[C@@H](C)C3)nc2c1` [Compound 638, [2-(2,6-Dimethyl-morpholin-4-ylmethyl)-7-(2-methoxy-phenyl)-quinazolin-4-yl]-(4-trifluoromethyl-phenyl)-amine (cis)], the Ki is less than 1 µM.
The value for `CC(=O)c1ccccc1-c1ccc2c(Nc3ccc(C(F)(F)F)cc3)nc(CN3C[C@@H](C)O[C@@H](C)C3)nc2c1` [Compound 639, 1-{2-[2-(2,6-Dimethyl-morpholin-4-ylmethyl)-4-(4-trifluoromethyl-phenylamino)-quinazolin-7-yl]-phenyl}-ethanone (cis)] was less than 1 µM.
Turning to `CC(C)c1ccc(Nc2nc(CN3C[C@H](C)O[C@@H](C)C3)nc3cc(-c4ncccc4C(F)(F)F)ccc23)cc1` [Compound 640, (S,S)-[2-(2,6-Dimethyl-morpholin-4-ylmethyl)-7-(3-trifluoromethyl-pyridin-2-yl)-quinazolin-4-yl]-(4-isopropyl-phenyl)-amine], the Ki was less than 1 µM.
The value for `CCc1ccc(Nc2nc(CN3C[C@H](C)O[C@@H](C)C3)nc3cc(-c4ncccc4C(F)(F)F)ccc23)cc1` [Compound 641, (S,S)-[2-(2,6-Dimethyl-morpholin-4-ylmethyl)-7-(3-trifluoromethyl-pyridin-2-yl)-quinazolin-4-yl]-(4-ethyl-phenyl)-amine] was less than 1 µM.
In the case of `C[C@H]1CN(Cc2nc(Nc3ccc(Cl)cc3)c3ccc(-c4ncccc4C(F)(F)F)cc3n2)C[C@H](C)O1` [Compound 642, (S,S)-(4-Chloro-phenyl)-[2-(2,6-dimethyl-morpholin-4-ylmethyl)-7-(3-trifluoromethyl-pyridin-2-yl)-quinazolin-4-yIl]amine], the Ki is less than 1 µM.
The value for `CC(C)S(=O)(=O)c1ccc(Nc2nc(CN3C[C@H](C)O[C@@H](C)C3)nc3cc(-c4ncccc4C(F)(F)F)ccc23)cc1` [Compound 643, (S,S)-[2-(2,6-Dimethyl-morpholin-4-ylmethyl)-7-(3-trifluoromethyl-pyridin-2-yl)-quinazolin-4-yl]-[4-(propane-2-sulfonyl)-phenyl]-amine] was less than 1 µM; that for `C[C@H]1CN(Cc2nc(Nc3ccc(Cl)cc3)c3ccc(-c4ncccc4Cl)cc3n2)C[C@H](C)O1` [Compound 644, (S,S)-(4-Chloro-phenyl)-[7-(3-chloro-pyridin-2-yl)-2-(2,6-dimethyl-morpholin-4-ylmethyl)-quinazolin-4-yl]-amine] was less than 1 µM.
Next, `CC(C)S(=O)(=O)c1ccc(Nc2nc(CN3C[C@H](C)O[C@@H](C)C3)nc3cc(-c4ncccc4Cl)ccc23)cc1` [Compound 645, (S,S)-[7-(3-Chloro-pyridin-2-yl)-2-(2,6-dimethyl-morpholin-4-ylmethyl)-quinazolin-4-yl]-[4-(propane-2-sulfonyl)-phenyl]-amine]: less than 1 µM; `CC(C)S(=O)(=O)c1ccc(Nc2nc(CN3CCO[C@@H](C)C3)nc3cc(-c4ncccc4Cl)ccc23)cc1` [Compound 646, (S)-[7-(3-Chloro-pyridin-2-yl)-2-(2-methyl-morpholin-4-ylmethyl)-quinazolin-4-yl]-[4-(propane-2-sulfonyl)-phenyl]-amine]: less than 1 µM; `C[C@H]1CN(Cc2nc(Nc3ccc(C(C)(C)C)cc3)c3ccc(-c4ncccc4Cl)cc3n2)CCO1` [Compound 647, (S)-(4-tert-Butyl-phenyl)-[7-(3-chloro-pyridin-2-yl)-2-(2-methyl-morpholin-4-ylmethyl)-quinazolin-4-yl]-amine]: less than 1 µM.
